13 molecules from patent publication US12441726B2, “Compounds and uses thereof” (Foghorn Therapeutics Inc., priority 2020, dated 2025) can be followed below.

The IC50 is the concentration that gives 50% inhibition.

Chain of BRM (P51531 whole entry): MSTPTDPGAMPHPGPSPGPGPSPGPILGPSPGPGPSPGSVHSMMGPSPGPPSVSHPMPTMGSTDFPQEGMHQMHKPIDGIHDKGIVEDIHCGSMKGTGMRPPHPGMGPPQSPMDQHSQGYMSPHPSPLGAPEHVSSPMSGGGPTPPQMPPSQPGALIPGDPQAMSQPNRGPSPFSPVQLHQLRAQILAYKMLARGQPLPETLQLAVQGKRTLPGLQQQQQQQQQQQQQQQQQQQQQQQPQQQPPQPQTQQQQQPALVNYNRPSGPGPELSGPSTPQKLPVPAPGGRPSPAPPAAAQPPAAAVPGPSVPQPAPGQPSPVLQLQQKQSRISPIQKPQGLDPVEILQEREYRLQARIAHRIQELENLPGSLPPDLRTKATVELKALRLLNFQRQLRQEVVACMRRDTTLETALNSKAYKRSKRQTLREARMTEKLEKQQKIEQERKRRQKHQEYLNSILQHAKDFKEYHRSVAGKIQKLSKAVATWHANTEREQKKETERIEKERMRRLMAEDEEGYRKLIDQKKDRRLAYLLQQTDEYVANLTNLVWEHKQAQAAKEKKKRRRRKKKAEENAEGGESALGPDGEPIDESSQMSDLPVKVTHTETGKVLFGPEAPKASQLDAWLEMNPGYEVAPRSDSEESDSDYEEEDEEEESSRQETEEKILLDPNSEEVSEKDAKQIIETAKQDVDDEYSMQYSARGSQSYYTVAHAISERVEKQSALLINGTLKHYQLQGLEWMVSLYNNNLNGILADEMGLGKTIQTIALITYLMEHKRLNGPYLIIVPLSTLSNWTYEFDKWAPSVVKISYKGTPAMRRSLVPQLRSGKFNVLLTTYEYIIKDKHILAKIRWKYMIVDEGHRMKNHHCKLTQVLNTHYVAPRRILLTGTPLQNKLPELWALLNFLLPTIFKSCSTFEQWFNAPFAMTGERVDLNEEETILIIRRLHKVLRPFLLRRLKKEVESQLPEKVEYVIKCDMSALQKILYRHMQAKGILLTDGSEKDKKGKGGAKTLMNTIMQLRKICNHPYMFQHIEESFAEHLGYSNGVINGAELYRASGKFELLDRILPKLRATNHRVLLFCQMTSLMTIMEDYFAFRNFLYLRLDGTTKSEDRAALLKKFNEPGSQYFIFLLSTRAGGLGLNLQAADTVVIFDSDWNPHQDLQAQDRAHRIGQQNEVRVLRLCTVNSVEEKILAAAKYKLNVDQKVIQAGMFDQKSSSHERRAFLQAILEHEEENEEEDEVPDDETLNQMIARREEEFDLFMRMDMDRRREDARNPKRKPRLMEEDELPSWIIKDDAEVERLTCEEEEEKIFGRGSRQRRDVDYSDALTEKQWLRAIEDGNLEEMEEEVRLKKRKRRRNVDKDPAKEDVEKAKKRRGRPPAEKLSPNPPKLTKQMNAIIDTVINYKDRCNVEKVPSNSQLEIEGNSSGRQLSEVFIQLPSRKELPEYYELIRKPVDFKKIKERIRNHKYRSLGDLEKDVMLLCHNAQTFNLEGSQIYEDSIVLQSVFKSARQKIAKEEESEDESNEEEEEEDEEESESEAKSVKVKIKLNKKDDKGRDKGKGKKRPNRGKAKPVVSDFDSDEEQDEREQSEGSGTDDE

The first assay has as its target BRM (Homo sapiens, UniProt P51531). In words: ATPase catalytic activity assay (ADP-Glo), BRM. As to conditions: 30 nM BRM, 400 μM ATP. For orientation: In ADP-Glo the light output rises with the ADP produced.
On to `COC(C)(C)C#Cc1cccc(-c2ccc3cnc(CNC(=O)c4ccc5c(c4)[C@](C)(C#N)COC5)cc3n2)n1` [Compound 163], for which the “BRM Max % Inhibition” value worked out at 98%.

With `C[C@@H](NC(=O)c1ccc2c(c1)[C@](C)(C#N)COC2)c1cc2nc(-c3ccccc3)ccc2cn1` [Compound 88], the “BRM Max % Inhibition” value was determined as 96%.

For `C[C@@]1(C#N)COCc2ccc(C(=O)NCc3cc([C@H]4C[C@@H](c5cccc(N6CCOCC6)n5)C4)ccn3)cc21` [Compound 80], the “BRM Max % Inhibition” value came out at 83%.

With `COc1c(-c2ccc3cnc(CNC(=O)c4ccc5c(c4)[C@](C)(C#N)COC5)cc3n2)cnn1C(F)F` [Compound 184], the “BRM Max % Inhibition” value was 94%.

Take `C[C@@]1(C#N)COCc2ccc(C(=O)NCc3cc4nc(-c5cc(F)cc(F)c5)ccc4cn3)cc21` [Compound 518]: the “BRM Max % Inhibition” value came to 96%.

As to `COc1c(F)cccc1-c1ccc2cnc(CNC(=O)c3ccc4c(c3)[C@](C)(C#N)COC4)cc2n1` [Compound 516], the “BRM Max % Inhibition” value is 96%.

Turning to `COc1ncccc1-c1ccc2nnc(CNC(=O)c3ccc4c(c3)[C@](C)(C#N)COC4)cc2c1` [Compound 357], the “BRM Max % Inhibition” value came to 97%.

Regarding `CN(C)c1nccc(-c2ccc3cnc(CNC(=O)c4ccc5c(c4)[C@](C)(C#N)COC5)cc3n2)n1` [Compound 424], the “BRM Max % Inhibition” value is listed as 99%.

Turning to `COC(=O)N1CCC=C(c2ccc3cnc(CNC(=O)c4ccc5c(c4)[C@](C)(F)COC5)cc3n2)C1` [Compound 345], the “BRM Max % Inhibition” value stood at 81%.

With `C[C@@]1(C#N)COCc2ccc(C(=O)NCc3cc(N4CCc5ccc(C(F)F)cc5C4)ccn3)cc21` [Compound 63], the “BRM Max % Inhibition” value was found to be 99%.

`C[C@@]1(C#N)COCc2ccc(C(=O)NCc3cc(/C(F)=C/c4ccccc4)ccn3)cc21` [Compound 27]: the “BRM Max % Inhibition” value turned out to be 97%.

As for `COc1nn(C(F)F)cc1-c1ccc2cnc(CNC(=O)c3cnc4c(c3)[C@](C)(F)COC4)cc2n1` [Compound 192], the “BRM Max % Inhibition” value is reported as 94%.

On to `C[C@@]1(C#N)COCc2ccc(C(=O)NCc3cc4nc(-c5ccnc(C(F)F)n5)ccc4cn3)cc21` [Compound 358], for which the “BRM Max % Inhibition” value was found to be 92%.

Staying with this assay, now noted: BRM ATPase: IC50 (uM), 30 nM BRM, 400 μM ATP.
With `COC(C)(C)C#Cc1cccc(-c2ccc3cnc(CNC(=O)c4ccc5c(c4)[C@](C)(C#N)COC5)cc3n2)n1` [Compound 163], the IC50 was less than 0.1 µM.

For `C[C@@H](NC(=O)c1ccc2c(c1)[C@](C)(C#N)COC2)c1cc2nc(-c3ccccc3)ccc2cn1` [Compound 88], the IC50 fell in the range of 0.1 to 0.5 µM.

On to `C[C@@]1(C#N)COCc2ccc(C(=O)NCc3cc([C@H]4C[C@@H](c5cccc(N6CCOCC6)n5)C4)ccn3)cc21` [Compound 80], for which the IC50 lay in the range of 0.1 to 0.5 µM.

For the molecule `COc1c(-c2ccc3cnc(CNC(=O)c4ccc5c(c4)[C@](C)(C#N)COC5)cc3n2)cnn1C(F)F` [Compound 184], the IC50 was in the range of 0.1 to 0.5 µM.

`C[C@@]1(C#N)COCc2ccc(C(=O)NCc3cc4nc(-c5cc(F)cc(F)c5)ccc4cn3)cc21` [Compound 518]: the IC50 was 0.1 to 0.5 µM.

With `COc1c(F)cccc1-c1ccc2cnc(CNC(=O)c3ccc4c(c3)[C@](C)(C#N)COC4)cc2n1` [Compound 516], the IC50 lay in the range of 0.1 to 0.5 µM.

Take `COc1ncccc1-c1ccc2nnc(CNC(=O)c3ccc4c(c3)[C@](C)(C#N)COC4)cc2c1` [Compound 357]: the IC50 was less than 0.1 µM.

`CN(C)c1nccc(-c2ccc3cnc(CNC(=O)c4ccc5c(c4)[C@](C)(C#N)COC5)cc3n2)n1` [Compound 424] registered an IC50 of less than 0.1 µM.

As to `COC(=O)N1CCC=C(c2ccc3cnc(CNC(=O)c4ccc5c(c4)[C@](C)(F)COC5)cc3n2)C1` [Compound 345], the IC50 was 0.1 to 0.5 µM.

Molecule `C[C@@]1(C#N)COCc2ccc(C(=O)NCc3cc(N4CCc5ccc(C(F)F)cc5C4)ccn3)cc21` [Compound 63] came in with an IC50 of less than 0.1 µM.

Consider `C[C@@]1(C#N)COCc2ccc(C(=O)NCc3cc(/C(F)=C/c4ccccc4)ccn3)cc21` [Compound 27], for which the IC50 was 0.1 to 0.5 µM.

Turning to `COc1nn(C(F)F)cc1-c1ccc2cnc(CNC(=O)c3cnc4c(c3)[C@](C)(F)COC4)cc2n1` [Compound 192], the half-maximal inhibitory concentration (IC50) was 0.1 to 0.5 µM.

In the case of `C[C@@]1(C#N)COCc2ccc(C(=O)NCc3cc4nc(-c5ccnc(C(F)F)n5)ccc4cn3)cc21` [Compound 358], the IC50 was 0.1 to 0.5 µM.

Another assay deals with BRG-1 (Homo sapiens, UniProt P51532). In words: ATPase catalytic activity assay (ADP-Glo), BRG-1.
Chain of BRG-1 (P51532 whole entry): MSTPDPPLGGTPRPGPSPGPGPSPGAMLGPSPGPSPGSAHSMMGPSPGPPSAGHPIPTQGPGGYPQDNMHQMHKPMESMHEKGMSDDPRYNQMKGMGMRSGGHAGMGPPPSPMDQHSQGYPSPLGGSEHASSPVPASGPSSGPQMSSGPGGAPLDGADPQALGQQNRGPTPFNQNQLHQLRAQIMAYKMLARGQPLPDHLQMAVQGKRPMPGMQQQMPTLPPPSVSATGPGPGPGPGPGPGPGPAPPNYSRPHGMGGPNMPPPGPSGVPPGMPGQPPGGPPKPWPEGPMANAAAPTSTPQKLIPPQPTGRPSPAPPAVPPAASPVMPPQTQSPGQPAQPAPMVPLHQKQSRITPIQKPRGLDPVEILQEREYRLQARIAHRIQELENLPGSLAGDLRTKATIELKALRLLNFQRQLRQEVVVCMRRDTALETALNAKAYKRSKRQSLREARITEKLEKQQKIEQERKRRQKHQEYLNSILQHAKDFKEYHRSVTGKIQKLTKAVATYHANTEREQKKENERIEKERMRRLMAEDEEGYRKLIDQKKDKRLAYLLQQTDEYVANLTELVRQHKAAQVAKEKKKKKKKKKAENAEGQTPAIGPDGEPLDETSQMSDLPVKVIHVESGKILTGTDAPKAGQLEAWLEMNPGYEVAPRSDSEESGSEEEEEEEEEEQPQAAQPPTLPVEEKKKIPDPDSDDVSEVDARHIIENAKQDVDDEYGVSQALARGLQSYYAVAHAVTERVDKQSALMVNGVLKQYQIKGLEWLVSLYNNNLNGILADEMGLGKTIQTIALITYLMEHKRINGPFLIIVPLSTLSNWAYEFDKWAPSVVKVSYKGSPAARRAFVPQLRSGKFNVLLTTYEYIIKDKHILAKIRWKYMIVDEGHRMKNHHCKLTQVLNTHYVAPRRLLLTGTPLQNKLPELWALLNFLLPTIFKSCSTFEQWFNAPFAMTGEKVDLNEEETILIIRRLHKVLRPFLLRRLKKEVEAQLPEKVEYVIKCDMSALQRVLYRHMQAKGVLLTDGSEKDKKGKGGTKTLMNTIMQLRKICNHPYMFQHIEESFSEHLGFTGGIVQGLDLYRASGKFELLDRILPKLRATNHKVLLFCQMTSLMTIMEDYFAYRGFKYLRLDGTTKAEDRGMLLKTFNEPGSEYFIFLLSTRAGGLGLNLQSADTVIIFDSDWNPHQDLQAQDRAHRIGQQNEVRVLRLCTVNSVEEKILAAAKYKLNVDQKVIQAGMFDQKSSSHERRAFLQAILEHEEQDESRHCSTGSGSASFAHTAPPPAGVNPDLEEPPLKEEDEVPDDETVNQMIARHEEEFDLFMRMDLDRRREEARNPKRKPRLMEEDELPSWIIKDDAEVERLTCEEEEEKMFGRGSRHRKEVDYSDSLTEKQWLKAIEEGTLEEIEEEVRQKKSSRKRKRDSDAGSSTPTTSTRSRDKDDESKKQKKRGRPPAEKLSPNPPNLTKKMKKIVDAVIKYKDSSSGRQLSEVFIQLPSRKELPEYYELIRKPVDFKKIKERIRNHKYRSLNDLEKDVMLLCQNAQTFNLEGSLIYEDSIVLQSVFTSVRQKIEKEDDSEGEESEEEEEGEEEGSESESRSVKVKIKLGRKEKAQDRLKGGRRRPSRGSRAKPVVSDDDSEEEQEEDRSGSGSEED
Conditions: not given
Molecule `COC(C)(C)C#Cc1cccc(-c2ccc3cnc(CNC(=O)c4ccc5c(c4)[C@](C)(C#N)COC5)cc3n2)n1` [Compound 163] showed an IC50 of 100 to 500 nM.

Consider `C[C@@H](NC(=O)c1ccc2c(c1)[C@](C)(C#N)COC2)c1cc2nc(-c3ccccc3)ccc2cn1` [Compound 88], for which the IC50 is more than 1000 nM.

`C[C@@]1(C#N)COCc2ccc(C(=O)NCc3cc([C@H]4C[C@@H](c5cccc(N6CCOCC6)n5)C4)ccn3)cc21` [Compound 80] came in with an IC50 of more than 1000 nM.

`COc1c(-c2ccc3cnc(CNC(=O)c4ccc5c(c4)[C@](C)(C#N)COC5)cc3n2)cnn1C(F)F` [Compound 184] yielded a half-inhibitory concentration (IC50) of 500 to 1000 nM.

On to `C[C@@]1(C#N)COCc2ccc(C(=O)NCc3cc4nc(-c5cc(F)cc(F)c5)ccc4cn3)cc21` [Compound 518], for which the half-inhibitory concentration (IC50) lay in the range of 500 to 1000 nM.

Regarding `COc1c(F)cccc1-c1ccc2cnc(CNC(=O)c3ccc4c(c3)[C@](C)(C#N)COC4)cc2n1` [Compound 516], the IC50 was in the range of 500 to 1000 nM.

In the case of `COc1ncccc1-c1ccc2nnc(CNC(=O)c3ccc4c(c3)[C@](C)(C#N)COC4)cc2c1` [Compound 357], the IC50 lay within 100 to 500 nM.

`CN(C)c1nccc(-c2ccc3cnc(CNC(=O)c4ccc5c(c4)[C@](C)(C#N)COC5)cc3n2)n1` [Compound 424] registered an IC50 of less than 100 nM.

Regarding `COC(=O)N1CCC=C(c2ccc3cnc(CNC(=O)c4ccc5c(c4)[C@](C)(F)COC5)cc3n2)C1` [Compound 345], the IC50 is more than 1000 nM.

Turning to `C[C@@]1(C#N)COCc2ccc(C(=O)NCc3cc(N4CCc5ccc(C(F)F)cc5C4)ccn3)cc21` [Compound 63], the IC50 was in the range of 500 to 1000 nM.

On to `C[C@@]1(C#N)COCc2ccc(C(=O)NCc3cc(/C(F)=C/c4ccccc4)ccn3)cc21` [Compound 27], for which the IC50 is more than 1000 nM.

With `COc1nn(C(F)F)cc1-c1ccc2cnc(CNC(=O)c3cnc4c(c3)[C@](C)(F)COC4)cc2n1` [Compound 192], the IC50 was in the range of 500 to 1000 nM.

As for `C[C@@]1(C#N)COCc2ccc(C(=O)NCc3cc4nc(-c5ccnc(C(F)F)n5)ccc4cn3)cc21` [Compound 358], the IC50 fell in the range of 500 to 1000 nM.

Staying with this assay, now noted: 1 h, read-out: BRG1 Max % Inhibition, ADP-Glo, 30 nM BRG-1, 400 μM ATP.
As for `COC(C)(C)C#Cc1cccc(-c2ccc3cnc(CNC(=O)c4ccc5c(c4)[C@](C)(C#N)COC5)cc3n2)n1` [Compound 163], the Emax stood at 87%.

For the molecule `C[C@@H](NC(=O)c1ccc2c(c1)[C@](C)(C#N)COC2)c1cc2nc(-c3ccccc3)ccc2cn1` [Compound 88], the Emax was 73%.

With `C[C@@]1(C#N)COCc2ccc(C(=O)NCc3cc([C@H]4C[C@@H](c5cccc(N6CCOCC6)n5)C4)ccn3)cc21` [Compound 80], the Emax was 29%.

Turning to `COc1c(-c2ccc3cnc(CNC(=O)c4ccc5c(c4)[C@](C)(C#N)COC5)cc3n2)cnn1C(F)F` [Compound 184], the Emax stood at 67%.

With `C[C@@]1(C#N)COCc2ccc(C(=O)NCc3cc4nc(-c5cc(F)cc(F)c5)ccc4cn3)cc21` [Compound 518], the Emax came to 72%.

`COc1c(F)cccc1-c1ccc2cnc(CNC(=O)c3ccc4c(c3)[C@](C)(C#N)COC4)cc2n1` [Compound 516]: the Emax worked out at 77%.

Turning to `COc1ncccc1-c1ccc2nnc(CNC(=O)c3ccc4c(c3)[C@](C)(C#N)COC4)cc2c1` [Compound 357], the Emax worked out at 87%.

On to `CN(C)c1nccc(-c2ccc3cnc(CNC(=O)c4ccc5c(c4)[C@](C)(C#N)COC5)cc3n2)n1` [Compound 424], for which the Emax is 96%.

Consider `COC(=O)N1CCC=C(c2ccc3cnc(CNC(=O)c4ccc5c(c4)[C@](C)(F)COC5)cc3n2)C1` [Compound 345], for which the Emax amounted to 25%.

For `C[C@@]1(C#N)COCc2ccc(C(=O)NCc3cc(N4CCc5ccc(C(F)F)cc5C4)ccn3)cc21` [Compound 63], the Emax is 84%.

Consider `C[C@@]1(C#N)COCc2ccc(C(=O)NCc3cc(/C(F)=C/c4ccccc4)ccn3)cc21` [Compound 27], for which the Emax came out at 62%.

As to `COc1nn(C(F)F)cc1-c1ccc2cnc(CNC(=O)c3cnc4c(c3)[C@](C)(F)COC4)cc2n1` [Compound 192], the Emax came out at 60%.

As for `C[C@@]1(C#N)COCc2ccc(C(=O)NCc3cc4nc(-c5ccnc(C(F)F)n5)ccc4cn3)cc21` [Compound 358], the Emax was found to be 67%.
